Test results from patent US7138361B2, “Herbicidal heterocycles” (E. I. du Pont de Nemours and Company, priority 2000, dated 2006).

Experiments:
Type in all cases: in vivo
Sunflower [1] = test: Test C preemergence; conditions: visual evaluation after 12 to 14 days
[2] = tested on: Surinam grass (Brachiaria decumbens); test: Test B postemergence; conditions: 13 to 15 days
How it was run: (§1)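 Greenhouse test: chemicals are formulated in a surfactant-containing non-phytotoxic solvent and applied either preemergence to planted seeds or postemergence to plants 2 to 18 cm tall. Response is rated visually versus controls after 13 to 15 days, 0 meaning no effect and 100 complete control.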

[3] = tested on: cocklebur (Xanthium strumarium); test: Test B postemergence; conditions: 13 to 15 days
How it was run: as §1

[4] = tested on: crabgrass (Digitaria sanguinalis); test: Test B postemergence; conditions: 13 to 15 days
How it was run: as §1

[5] = tested on: velvetleaf (Abutilon theophrasti); test: Test B postemergence; conditions: 13 to 15 days
How it was run: as §1

[6] = tested on: barnyardgrass (Echinochloa crus-galli); test: Test B postemergence; conditions: 13 to 15 days
How it was run: as §1

[7] = tested on: pigweed (Amaranthus retroflexus); test: Test B postemergence; conditions: 13 to 15 days
How it was run: as §1

[8] = tested on: lambsquarters (Chenopodium album); test: Test B postemergence; conditions: 13 to 15 days
How it was run: as §1

[9] = tested on: blackgrass (Alopecurus myosuroides); test: Test B postemergence; conditions: 13 to 15 days
How it was run: as §1

[10] = tested on: wheat (Triticum aestivum); test: Test B postemergence; conditions: 13 to 15 days
How it was run: as §1

corn (Zea mays) [11] = test: Test B postemergence; conditions: 13 to 15 days
How it was run: as §1

[12] = tested on: morning glory (Ipomoea hederacea); test: Test B postemergence; conditions: 13 to 15 days
How it was run: as §1

[13] = tested on: giant foxtail (Setaria faberii); test: Test B postemergence; conditions: 13 to 15 days
How it was run: as §1

wild oat (Avena fatua) = test: Test B postemergence; conditions: 13 to 15 days
How it was run: as §1

[14] = tested on: yellow nutsedge (Cyperus esculentus); test: Test C preemergence; conditions: for Plant response rating (0 to 100), Nutsedge: visual evaluation after 12 to 14 days
How it was run: (§2)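 Visual 0–100 rating vs controls (0 = no effect, 100 = complete control) at 12–14 d, greenhouse. Compounds in non-phytotoxic solvent + surfactant; pre: sprayed after seeding; post: 1–4-leaf plants, 2–18 cm.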

Sunflower [15] = test: Test C preemergence; conditions: scale 0 to 100, 0 no effect, 100 complete control
[16] = tested on: velvetleaf (Abutilon theophrasti); test: Test C preemergence; conditions: for Plant response rating (0 to 100), Velvetleaf: visual evaluation after 12 to 14 days
How it was run: as §2

[17] = tested on: johnsongrass (Sorghum halepense); test: Test C preemergence; conditions: for Plant response rating (0 to 100), Johnsongrass: visual evaluation after 12 to 14 days
How it was run: as §2

corn (Zea mays) [18] = test: Test C preemergence; conditions: for Plant response rating (0 to 100), Corn: visual evaluation after 12 to 14 days
How it was run: as §2

[19] = tested on: morningglory (Ipomoea hederacea); test: Test C preemergence; conditions: for Plant response rating (0 to 100), Morningglory: visual evaluation after 12 to 14 days
How it was run: as §2

[20] = tested on: bermudagrass (Cynodon dactylon); test: Test C preemergence; conditions: for Plant response rating (0 to 100 where 0 is no effect and 100 is complete control), Bermudagrass: visual evaluation after 12 to 14 days
How it was run: as §2

kochia (Kochia scoparia) = test: Test C preemergence; conditions: for Plant response rating (0 to 100), Kochia: visual evaluation after 12 to 14 days
How it was run: as §2

[21] = tested on: giant foxtail (Setaria faberii); test: Test C preemergence; conditions: for Plant response rating (0 to 100), Foxtail, Giant: visual evaluation after 12 to 14 days
How it was run: as §2

[22] = Rate 125 g/ha, scale 0 (no effect) to 100 (complete control)
[23] = Rate 500 g/ha, scale 0 to 100, 0 is no effect, 100 is complete control
[24] = Rate 62 g/ha, scale 0 to 100, 0 no effect, 100 complete control
[25] = preemergence, Rate 31 g/ha, scale 0 to 100
[26] = preemergence, Rate 125 g/ha, scale 0 to 100, 0 no effect, 100 complete control
[27] = Rate 125 g/ha, scale 0 to 100, 0 no effect, 100 complete control
[28] = preemergence, Rate 62 g/ha, scale 0 to 100
[29] = preemergence, Rate 250 g/ha, scale 0 to 100, 0 no effect, 100 complete control

CC(C)(C)c1ccn(C2CCN(c3ccc(Cl)c(Cl)c3)C2=O)n1 (centres unmarked) [Compound 34]
Plant response rating (0 to 100), Sunflower (Sunflower [1]; Rate 250 g/ha): 0 | Plant response rating, Surinam grass [2, 22]: 0 | Plant response rating, Surinam grass [2, 23]: 0 | Plant response rating, Cocklebur [3, 22]: 0 | Plant response rating, Cocklebur [3, 23]: 0 | Plant response rating, Crabgrass [4, 22]: 0 | Plant response rating, Crabgrass [4, 23]: 0 | Plant response rating, Velvetleaf [5, 22]: 0 | Plant response rating, Velvetleaf [5, 23]: 0 | Plant response rating, Barnyardgrass [6, 22]: 0 | Plant response rating, Barnyardgrass [6, 23]: 0 | Plant response rating, Pigweed [7, 22]: 90 | Plant response rating, Pigweed [7, 23]: 90 | Plant response rating, Lambsquarters [8, 22]: 90 | Plant response rating, Lambsquarters [8, 23]: 100 | Plant response rating, Blackgrass [9, 22]: 0 | Plant response rating, Blackgrass [9, 23]: 0 | Plant response rating, Wheat [10, 22]: 0 | Plant response rating, Wheat [10, 23]: 0 | Plant response rating, Corn (corn (Zea mays) [11]; [22]): 0 | Plant response rating, Corn (corn (Zea mays) [11]; [23]): 0 | Plant response rating, Morningglory [12, 22]: 0 | Plant response rating, Morningglory [12, 23]: 0 | Plant response rating, Foxtail, Giant [13, 22]: 0 | Plant response rating, Foxtail, Giant [13, 23]: 0 | Plant response rating, Wild Oat (wild oat (Avena fatua); [22]): 0 | Plant response rating, Wild Oat (wild oat (Avena fatua); [23]): 0 | Plant response rating, Nutsedge [14, 24]: 0 | Plant response rating, Nutsedge [14, 25]: 0 | Plant response rating (0 to 100), Nutsedge ([14]; preemergence, Rate 250 g/ha): 0 | Plant response rating, Nutsedge [14, 26]: 0 | Plant response rating, Sunflower (Sunflower [15]; Rate 62 g/ha): 0 | Plant response rating, Velvetleaf [16, 24]: 0 | Plant response rating, Velvetleaf [16, 25]: 0 | Plant response rating (0 to 100), Velvetleaf ([16]; preemergence, Rate 250 g/ha): 0 | Plant response rating, Velvetleaf [16, 26]: 0 | Plant response rating, Johnsongrass [17, 24]: 0 | Plant response rating, Johnsongrass [17, 25]: 0 | Plant response rating (0 to 100), Johnsongrass ([17]; preemergence, Rate 250 g/ha): 0 | Plant response rating, Johnsongrass [17, 26]: 0 | Plant response rating, Corn (corn (Zea mays) [18]; [24]): 0 | Plant response rating, Corn (corn (Zea mays) [18]; [25]): 0 | Plant response rating (0 to 100), Corn (corn (Zea mays) [18]; preemergence, Rate 250 g/ha): 0 | Plant response rating, Corn (corn (Zea mays) [18]; [26]): 0 | Plant response rating, Morningglory [19, 24]: 0 | Plant response rating, Morningglory [19, 25]: 0 | Plant response rating (0 to 100), Morningglory ([19]; preemergence, Rate 250 g/ha): 0 | Plant response rating, Morningglory [19, 26]: 0 | Plant response rating, Bermudagrass [20, 24]: 80 | Plant response rating, Bermudagrass [20, 25]: 0 | Plant response rating (0 to 100 where 0 is no effect and 100 is complete control), Bermudagrass ([20]; preemergence, Rate 250 g/ha): 100 | Plant response rating, Bermudagrass [20, 26]: 90 | Plant response rating, Kochia (kochia (Kochia scoparia); [24]): 100 | Plant response rating, Kochia (kochia (Kochia scoparia); [25]): 100 | Plant response rating (0 to 100), Kochia (kochia (Kochia scoparia); preemergence, Rate 250 g/ha): 100 | Plant response rating, Kochia (kochia (Kochia scoparia); [26]): 100 | Plant response rating, Foxtail, Giant [21, 24]: 30 | Plant response rating, Foxtail, Giant [21, 25]: 30 | Plant response rating (0 to 100), Foxtail, Giant ([21]; preemergence, Rate 250 g/ha): 50 | Plant response rating, Foxtail, Giant [21, 26]: 0

CC(C)(C)c1ccn(C2CCN(c3cccc(SC(F)(F)F)c3)C2=O)n1 (centres unmarked) [Compound 93]
Plant response rating (0 to 100), Sunflower (Sunflower [1]; Rate 500 g/ha): 20 | Plant response rating, Surinam grass [2, 22]: 0 | Plant response rating, Surinam grass [2, 23]: 0 | Plant response rating, Cocklebur [3, 22]: 30 | Plant response rating, Cocklebur [3, 23]: 50 | Plant response rating, Crabgrass [4, 22]: 0 | Plant response rating, Crabgrass [4, 23]: 0 | Plant response rating, Velvetleaf [5, 23]: 10 | Plant response rating, Barnyardgrass [6, 22]: 0 | Plant response rating, Barnyardgrass [6, 23]: 0 | Plant response rating, Pigweed [7, 23]: 20 | Plant response rating, Lambsquarters [8, 23]: 80 | Plant response rating, Blackgrass [9, 22]: 0 | Plant response rating, Blackgrass [9, 23]: 0 | Plant response rating, Wheat [10, 23]: 0 | Plant response rating, Corn (corn (Zea mays) [11]; [22]): 0 | Plant response rating, Corn (corn (Zea mays) [11]; [23]): 0 | Plant response rating, Morningglory [12, 23]: 10 | Plant response rating, Foxtail, Giant [13, 22]: 0 | Plant response rating, Foxtail, Giant [13, 23]: 0 | Plant response rating, Wild Oat (wild oat (Avena fatua); [23]): 0 | Plant response rating, Nutsedge [14, 27]: 0 | Plant response rating, Nutsedge [14, 28]: 0 | Plant response rating (0 to 100), Nutsedge ([14]; preemergence, Rate 500 g/ha): 0 | Plant response rating, Nutsedge [14, 29]: 0 | Plant response rating, Sunflower (Sunflower [15]; Rate 125 g/ha): 0 | Plant response rating, Velvetleaf [16, 27]: 0 | Plant response rating, Velvetleaf [16, 28]: 0 | Plant response rating (0 to 100), Velvetleaf ([16]; preemergence, Rate 500 g/ha): 20 | Plant response rating, Velvetleaf [16, 29]: 0 | Plant response rating, Johnsongrass [17, 28]: 0 | Plant response rating (0 to 100), Johnsongrass ([17]; preemergence, Rate 500 g/ha): 10 | Plant response rating, Johnsongrass [17, 29]: 10 | Plant response rating, Corn (corn (Zea mays) [18]; [27]): 0 | Plant response rating, Corn (corn (Zea mays) [18]; [28]): 0 | Plant response rating (0 to 100), Corn (corn (Zea mays) [18]; preemergence, Rate 500 g/ha): 30 | Plant response rating, Corn (corn (Zea mays) [18]; [29]): 0 | Plant response rating, Morningglory [19, 27]: 0 | Plant response rating, Morningglory [19, 28]: 0 | Plant response rating (0 to 100), Morningglory ([19]; preemergence, Rate 500 g/ha): 20 | Plant response rating, Morningglory [19, 29]: 0 | Plant response rating, Bermudagrass [20, 27]: 90 | Plant response rating, Bermudagrass [20, 28]: 0 | Plant response rating (0 to 100 where 0 is no effect and 100 is complete control), Bermudagrass ([20]; preemergence, Rate 500 g/ha): 100 | Plant response rating, Bermudagrass [20, 29]: 100 | Plant response rating, Kochia (kochia (Kochia scoparia); [27]): 0 | Plant response rating, Kochia (kochia (Kochia scoparia); [28]): 0 | Plant response rating (0 to 100), Kochia (kochia (Kochia scoparia); preemergence, Rate 500 g/ha): 80 | Plant response rating, Kochia (kochia (Kochia scoparia); [29]): 30 | Plant response rating, Foxtail, Giant [21, 27]: 20 | Plant response rating, Foxtail, Giant [21, 28]: 0 | Plant response rating (0 to 100), Foxtail, Giant ([21]; preemergence, Rate 500 g/ha): 60 | Plant response rating, Foxtail, Giant [21, 29]: 20
